Results on two compounds are retold here after patent publication US20190211024A1 (priority 2016, published 2019).

The subject of this experiment is influenza virus A/California/07/09 (H1N1) pdm09. Also noted: species or system mice. The settings on record: mouse, in vivo.

The structures appear in SMILES notation. Values joined by “and” are separate entries in the source; they are usually repeats but may differ in a detail not shown here. Identical values can stand only once. Counter-ions that a name gives are not always drawn.

On to `CCOC(=O)C1=C[C@@H](OC(CC)CC)[C@H](NC(C)=O)[C@@H](N)C1` [Tamiflu], for which the “Time after infection within which the drug must be administered for greatest efficacy” value is at most 24 h.

For `CSc1nc2[nH]nc([N+](=O)[O-])c(=O)n2n1` [Triazavirin, sodium salt of 2-methylthio-6-nitro-1,2,4-triazolo[5,1-c]1,2,4-triazine-7-one, dihydrate], the “Mice rescued from infection” value worked out at 80%. Further, the “Index of protection %” value (100 mg/kg/day, dihydrate) was 63% and 62.5%. Moreover, where the note is “po, 100 mg/kg/day”, the “AST (average life span of animals)” value came out at 13.7 cyr, the “Mortality by day: 7” value came to 1, the “Mortality by day: 8” value was found to be 1 and the “Mortality by day: 10” value is listed as 1. Besides, under “po, 100 mg/kg/day”, the “Mortality, %” value worked out at 20.0%.
